From US9233951B2, “Heterocyclic compounds as pesticides” (Bayer Intellectual Property GmbH, priority 2010, dated 2016) come the findings set out here.

The structures appear in SMILES notation. Where two headings read alike, the source gives them in different places.

Series [1] in a line: physchem. Format: physicochemical. The method, then: 1 Method Description for Determination of the logP values and Mass Detection
Eluents for determination in the acidic range (pH 3.4): • Eluent A: acetonitrile+1 ml formic acid/l.
The λmax values were determined in the maxima of the chromatographic signals using the UV spectra from 200 nm to 400 nm. The mass was detected (M^+, m/z) by means of an Agilent MSD mass spectrometer.

Series [2] deals with green peach aphid (Myzus persicae). Kind of series: Myzus persicae test (spray treatment). The following applies: foliar, 144 h, application rate 500 g/ha, Chinese cabbage leaf discs sprayed, after 6 days, 100% = all aphids killed, read-out: efficacy in %. Format: in vivo. The method, then:
Myzus persicae Test (Spray Treatment)
• Solvent: 78 parts by weight of acetone • 1.5 parts by weight of dimethylformamide • Emulsifier: 0.5 part by weight of alkylaryl polyglycol ether
To prepare an appropriate active ingredient preparation, 1 part by weight of active ingredient is mixed with the stated amounts of solvent and emulsifier, and the concentrate is diluted with emulsifier-containing water to the desired concentration. Discs of Chinese cabbage (Brassica pekinensis) infested by all stages of the green peach aphid (Myzus persicae) are sprayed with an active ingredient preparation of the desired concentration.
After 6 days, the efficacy in % is determined. 100% means that all of the aphids have been killed; 0% means that none of the aphids have been killed.

[3] abbreviates: reverse-phase HPLC column (C 18), pH 3.4, HPLC-MS value printed in the preparation example text, acidic range pH 3.4, read-out: logP (HCOOH).
Setting [4] is: reverse-phase HPLC column (C 18), pH 3.4, HPLC, reverse-phase C 18, acidic range pH 3.4, 55° C., table of compounds, read-out: logP (HCO2H).

For the compound `O=C(O)C1CN=C(c2cccnc2)S1` (racemic) [(R,S)-4,5-Dihydro-2-(3-pyridinyl)-1,3-thiazole-5-carboxylic acid], in series [1] (pH 3.4, HPLC-MS value printed in the preparation example text, acidic range pH 3.4, read-out: logP (HCOOH)), the chromatographic logP came out at 0.75.
As to `O=C(O)C1CN=C(c2cncnc2)S1` (racemic) [(R,S)-4,5-Dihydro-2-(5-pyrimidinyl)-1,3-thiazole-5-carboxylic acid], in series [1] (setting [3]), the chromatographic logP is 0.3.
Turning to `CN(C)C(=O)C1CN=C(c2cccnc2)S1` (racemic) [Compound 41, (R,S)-4,5-Dihydro-N,N-dimethyl-2-(3-pyridinyl)-1,3-thiazole-5-carboxamide], the pest or weed control at 500 g/ha in series [2] was 100%.
On to `O=C(NCc1ncccn1)C1CN=C(c2cncnc2)S1` (racemic) [Compound 44, (R,S)-4,5-Dihydro-N-(pyrimidin-2-ylmethyl)-2-(5-pyrimidinyl)-1,3-thiazole-5-carboxamide], for which the chromatographic logP in series [1] (setting [4]) and in series [1] (setting [3]) was 0.9 each time. Also, the pest or weed control at 500 g/ha in series [2] came out at 80%.
For `O=C(O)c1cn(-c2cccnc2)nn1` [1-(Pyridin-3-yl)-1H-1,2,3-triazole-4-carboxylic acid], in series [1] (setting [3]), the chromatographic logP is -0.03.
On to `O=C(O)c1cnc(-c2cccnc2)o1` [2-(Pyridin-3-yl)-1,3-oxazole-5-carboxylic acid], for which the chromatographic logP in series [1] (setting [3]) is -0.06.
Same read-out and setting: the figure for `O=C(O)c1csc(-c2cccnc2)n1` [2-(Pyridin-3-yl)-1,3-thiazole-4-carboxylic acid] is 0.35; for `O=C(O)c1cc(-c2ccc(Cl)nc2)ns1` [3-(6-Chloropyridin-3-yl)-1,2-thiazole-5-carboxylic acid] it is 1.56; for `CC(F)(F)CNC(=O)c1cc(-c2ccc(Cl)nc2)ns1` [3-(6-Chloropyridin-3-yl)-N-(2,2-difluoropropyl)-1,2-thiazole-5-carboxamide] it is 2.45.
The same measure, in the same setting: the figure for `Cc1cc(-c2cccnc2)sc1C(=O)O` [3-Methyl-5-(pyridin-3-yl)thiophene-2-carboxylic acid] is 1.96.
Consider `Cc1nc(-c2cccnc2)oc1C(=O)O` [4-Methyl-2-(pyridin-3-yl)-1,3-oxazole-5-carboxylic acid], for which the chromatographic logP in series [1] (setting [3]) is 0.56.
For the compound `O=C(O)c1coc(-c2cccnc2)c1` [5-(Pyridin-3-yl)furan-3-carboxylic acid], the chromatographic logP in series [1] (setting [3]) was 0.07.
Consider `O=C(NCC(F)(F)F)n1cnc(-c2cccnc2)c1` [Compound 1, 4-(Pyridin-3-yl)-N-(2,2,2-trifluoroethyl)-1H-imidazole-1-carboxamide], for which the chromatographic logP in series [1] (setting [4]) and in series [1] (setting [3]) was 0.65 throughout. In addition, the pest or weed control at 500 g/ha in series [2] was 100%.
Turning to `CN(C)C(=O)c1cc(-c2cccnc2)no1` [Compound 2, N,N-Dimethyl-3-(pyridin-3-yl)-1,2-oxazole-5-carboxamide], the chromatographic logP in series [1] (setting [4]) and in series [1] (setting [3]) was 0.78 in each case. In addition, in series [2], the pest or weed control at 500 g/ha is 100%.
In the case of `O=C(NCc1ncccn1)c1cc(-c2cccnc2)no1` [Compound 3], the chromatographic logP in series [1] (setting [4]) was 0.62. Besides, in series [2], the pest or weed control at 500 g/ha was 100%.
For the compound `Cc1nc(-c2cccnc2)oc1C(=O)NCC(F)(F)F` [Compound 4, 4-Methyl-2-(pyridin-3-yl)-N-(2,2,2-trifluoroethyl)-1,3-oxazole-5-carboxamide], the chromatographic logP in series [1] (setting [4]) and in series [1] (setting [3]) was 1.46 throughout.
In the case of `Cc1cc(-c2cccnc2)sc1C(=O)NCC(F)(F)F` [Compound 5, 3-Methyl-5-(pyridin-3-yl)-N-(2,2,2-trifluoroethyl)thiophene-2-carboxamide], the chromatographic logP in series [1] (setting [4]) and in series [1] (setting [3]) was 1.62 in each case.
On to `CCN(CC)C(=O)c1ccc(-c2cccnc2)o1` [Compound 6], for which the chromatographic logP in series [1] (setting [4]) was 1.23. In addition, the pest or weed control at 500 g/ha in series [2] turned out to be 100%.
Taken in the same sequence, the figures for `CN(C)C(=O)c1ccc(-c2cccnc2)o1` [Compound 7] were 0.51 and 100%.
For `CC(NC(=O)c1ccc(-c2cccnc2)o1)C1CC1` (stereo not shown) [Compound 8], the chromatographic logP in series [1] (setting [4]) turned out to be 1.36. Moreover, the pest or weed control at 500 g/ha in series [2] worked out at 80%.
As for `O=C(c1ccc(-c2cccnc2)o1)N1CCCC1` [Compound 10], the chromatographic logP in series [1] (setting [4]) came out at 1.06.
`CCN(C)C(=O)c1ccc(-c2cccnc2)o1` [Compound 11]: in series [1] (setting [4]), the chromatographic logP worked out at 1. The pest or weed control at 500 g/ha in series [2] came to 100%.
In the case of `O=C(NCC(F)(F)F)c1coc(-c2cccnc2)c1` [Compound 12, 5-(Pyridin-3-yl)-N-(2,2,2-trifluoroethyl)furan-3-carboxamide], the chromatographic logP in series [1] (setting [4]) and in series [1] (setting [3]) was 1.13 in each case. The pest or weed control at 500 g/ha in series [2] was 90%.
`N#CCNC(=O)c1csc(-c2cccnc2)n1` [Compound 14]: the chromatographic logP in series [1] (setting [4]) was 0.8. Moreover, the pest or weed control at 500 g/ha in series [2] stood at 80%.
Turning to `O=C(NCC1CCCCC1)c1ccc(-c2cccnc2)o1` [Compound 15], in series [1] (setting [4]), the chromatographic logP was determined as 2.02.
Regarding `CN(CC#N)C(=O)c1ccc(-c2cccnc2)o1` [Compound 16], the chromatographic logP in series [1] (setting [4]) came out at 0.72. Moreover, the pest or weed control at 500 g/ha in series [2] came out at 90%.
As for `O=C(NCc1cccs1)c1ccc(-c2cccnc2)o1` [Compound 17], in series [1] (setting [4]), the chromatographic logP came out at 1.46. Besides, in series [2], the pest or weed control at 500 g/ha is 100%.
`O=C(NCC=CCl)c1ccc(-c2cccnc2)o1` [Compound 18]: the “logP (HCO2H)” value in series [1] (HPLC, reverse-phase C 18, acidic range pH 3.4, 55° C., table of compounds) is 1.33. For the same compound, the chromatographic logP in series [1] (setting [4]) was found to be 1.27. Further, the pest or weed control at 500 g/ha in series [2] was 90%.
Consider `C=C(Cl)CNC(=O)c1ccc(-c2cccnc2)o1` [Compound 19], for which the chromatographic logP in series [1] (setting [4]) turned out to be 1.28. In addition, the pest or weed control at 500 g/ha in series [2] came out at 100%.
The matching figures for `C#CCNC(=O)c1ccc(-c2cccnc2)o1` [Compound 22]: 0.72 and 100%.
The matching figures for `CCN(CC)C(=O)c1oc(-c2cccnc2)cc1C` [Compound 24]: 1.58 and 90%.
As for `O=C(NCC(F)(F)Br)c1ccc(-c2cccnc2)o1` [Compound 26], the chromatographic logP in series [1] (setting [4]) is 1.49.
Regarding `NC(=O)c1csc(-c2cccnc2)n1` [Compound 28], the pest or weed control at 500 g/ha in series [2] worked out at 100%.
For the compound `CSCCNC(=O)c1nnc(-c2cccnc2)o1` [Compound 34, N-(2-Methylmercaptoethyl)-5-(pyridin-3-yl)-1,3,4-oxazole-2-carboxamide], the chromatographic logP in series [1] (setting [4]) and in series [1] (setting [3]) was 1.13 throughout.
On to `O=C(NCC(F)(F)F)c1cc(-c2cccnc2)on1` [Compound 39, 5-(Pyridin-3-yl)-N-(2,2,2-trifluoroethyl)-1,2-oxazole-3-carboxamide], for which the chromatographic logP in series [1] (setting [4]) and in series [1] (setting [3]) was 1.51 each time.
As for `O=C(NCC(F)(F)F)c1cc(-c2cccnc2)no1` [Compound 40], the chromatographic logP in series [1] (setting [4]) was 1.33.
For `O=C(NCC(F)(F)F)C1CN=C(c2cccnc2)S1` (stereo not shown) [Compound 42], the chromatographic logP in series [1] (pH 3.4, logP (HCO2H)) is 0.54.
In the case of `CN(C)C(=O)C1CN=C(c2cncnc2)S1` (stereo not shown) [Compound 46], in series [1] (setting [4]), the chromatographic logP is 0.99.
As for `Cc1nc(C(=O)NCC(F)(F)F)sc1-c1cccnc1` [Compound 47, 4-Methyl-5-(3-pyridyl)-N-(2,2,2-trifluoroethyl)-1,3-thiazole-2-carboxamide], the chromatographic logP in series [1] (setting [4]) and in series [1] (setting [3]) was 1.74 each time.
For `O=C(NCC(F)(F)F)n1cc(-c2cccnc2)cn1` [Compound 48], the chromatographic logP in series [1] (setting [3]) turned out to be 0.95.
On to `O=C(NCC(F)(F)F)c1nnc(-c2cccnc2)o1` [Compound 49, 5-(Pyridin-3-yl)-N-(2,2,2-trifluoroethyl)-1,3,4-oxadiazole-2-carboxamide], for which the chromatographic logP in series [1] (setting [4]) and in series [1] (setting [3]) was 1.21 in each case.
Take `Cc1c(C(=O)NCC(F)(F)F)ncn1-c1cccnc1` [Compound 50, 5-Methyl-1-(pyridin-3-yl)-N-(2,2,2-trifluoroethyl)-1H-imidazole-4-carboxamide]: the chromatographic logP in series [1] (setting [4]) and in series [1] (setting [3]) was 1.28 throughout.
Take `CCOC(=O)c1cn(-c2cccnc2)nn1` [Ethyl 1-(pyridin-3-yl)-1H-1,2,3-triazole-4-carboxylate]: the chromatographic logP in series [1] (setting [3]) is 1.15.
As for `CCOC(=O)c1cc(-c2ccc(Cl)nc2)ns1` [Ethyl 3-(6-chloropyridin-3-yl)-1,2-thiazole-5-carboxylate], the chromatographic logP in series [1] (setting [3]) was determined as 3.33.
As to `CCOC(=O)c1nc(C)c(-c2cccnc2)s1` [Ethyl 4-methyl-5-(3-pyridinyl)-1,3-thiazole-2-carboxylate], in series [1] (setting [3]), the chromatographic logP came out at 0.45.
Still for that read-out and setting: as for `CCOC(=O)c1nnc(-c2cccnc2)o1` [Ethyl 5-(pyridin-3-yl)-1,3,4-oxadiazole-2-carboxylate], the figure is 1.21; as for `CCOC(=O)c1ncn(-c2cccnc2)c1C` [Ethyl 5-methyl-1-(pyridin-3-yl)-1H-imidazole-4-carboxylate], 1.03; as for `COC(=O)c1ccn(-c2cccnc2)c1` [Methyl 1-(pyridin-3-yl)pyrrole-3-carboxylate], 1.26.
